Counter-ions that a name gives are not always drawn. Like-named read-outs stand apart in the source and are kept apart here. Values belong to the molecule of their own block, whether it stands above or below them. Numbered stars: 1 amine (or outer) side, 2 acyl side, 3 side chain; on linkers, the order of the positions; unused ones are H or OH. Square brackets hold non-standard residues; d marks the D form. Peptide text beside a SMILES is read from it. * marks the point of attachment. ξ: configuration not given here. dPhe(4-NH2) = Nc1ccc(C[C@@H](N)C(=O)O)cc1; dPiz(1,6-dehydro) = O=C(O)[C@H]1CCC=NN1; d1Nal = N[C@H](Cc1cccc2ccccc12)C(=O)O; d2Nal = N[C@H](Cc1ccc2ccccc2c1)C(=O)O; dNMehPhe = CN[C@H](CCc1ccccc1)C(=O)O; X12 = O=C([C@@H]1CCCNN1[*:1])[*:2]; NMeI = CC[C@H](C)[C@H](NC)C(=O)O; X6 = O=C([C@H]1CCCNN1[*:1])[*:2]; dNMeF = CN[C@H](Cc1ccccc1)C(=O)O; Cha = N[C@@H](CC1CCCCC1)C(=O)O; ξmTyr = NC(Cc1cccc(O)c1)C(=O)O; Pip = O=C(O)[C@@H]1CCCCN1; dPip = O=C(O)[C@H]1CCCCN1; Orn = NCCC[C@H](N)C(=O)O; Boc = CC(C)(C)OC(=O)*
Experiments:
AVP-V1 sites = target: T1, AVP-V1 sites (Rattus norvegicus, UniProt P30560); test: [^3 H]AVP binding to crude membrane preparation of male rat liver (AVP-V1 sites)
T1 construct: crude membrane preparation of male rat liver (AVP-V1 sites); from tissue; host or cells: male rat liver, crude membranes
T1 sequence (P30560 whole entry): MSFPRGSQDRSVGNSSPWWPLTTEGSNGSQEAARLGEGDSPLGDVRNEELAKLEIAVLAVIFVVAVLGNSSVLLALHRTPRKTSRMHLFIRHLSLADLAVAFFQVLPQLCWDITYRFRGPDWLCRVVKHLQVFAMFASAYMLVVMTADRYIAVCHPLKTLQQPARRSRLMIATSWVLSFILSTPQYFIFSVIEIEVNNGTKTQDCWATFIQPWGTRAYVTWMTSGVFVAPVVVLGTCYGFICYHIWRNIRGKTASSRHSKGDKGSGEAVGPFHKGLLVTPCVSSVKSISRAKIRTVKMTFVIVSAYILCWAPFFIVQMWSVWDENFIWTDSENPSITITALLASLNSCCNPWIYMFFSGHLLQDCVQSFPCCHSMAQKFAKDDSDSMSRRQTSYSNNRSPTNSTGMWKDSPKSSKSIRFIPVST
Protocol: (§1) Nonspecific binding (5-10% of the total binding) was determined using 10 μM unlabeled AVP, and the binding reaction was terminated by filtration as described above for the [^3 H]OT binding assay.

uterine OT receptors = target: T2, uterine OT receptors (Rattus norvegicus, UniProt P70536); test: [^3 H]OT binding to uterine OT receptors, crude membrane preparation of uteri from DES-treated rats
T2 construct: from tissue; host or cells: uterus of DES-treated rats, crude membranes
T2 sequence (P70536 1-388): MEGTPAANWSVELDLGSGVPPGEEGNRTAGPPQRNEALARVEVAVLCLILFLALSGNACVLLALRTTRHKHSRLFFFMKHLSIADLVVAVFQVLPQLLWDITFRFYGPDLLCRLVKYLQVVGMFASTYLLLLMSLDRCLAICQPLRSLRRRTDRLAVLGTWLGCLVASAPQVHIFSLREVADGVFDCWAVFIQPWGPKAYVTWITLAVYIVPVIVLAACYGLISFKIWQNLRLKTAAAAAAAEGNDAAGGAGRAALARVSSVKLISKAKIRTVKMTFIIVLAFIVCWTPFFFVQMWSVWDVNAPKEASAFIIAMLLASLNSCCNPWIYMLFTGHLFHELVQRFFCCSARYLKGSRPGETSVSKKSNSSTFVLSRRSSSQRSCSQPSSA
Protocol: Competition studies were conducted at equilibrium (60 minutes; 22° C.) using 1 nM [^3 H]OT in the following assay buffer: 50 mM Tris-HCl, 5 mM MgCl2, and 0.1% BSA, pH 7.4.

AVP-V2 sites = target: T3, AVP-V2 sites (Rattus norvegicus, UniProt Q00788); test: [^3 H]AVP binding to crude membrane preparation of male rat kidney medulla (AVP-V2 sites)
T3 construct: male rat liver (AVP-V1 sites) or kidney medulla (AVP-V2 sites); from tissue; host or cells: male rat kidney medulla, crude membranes
T3 sequence (Q00788 whole entry): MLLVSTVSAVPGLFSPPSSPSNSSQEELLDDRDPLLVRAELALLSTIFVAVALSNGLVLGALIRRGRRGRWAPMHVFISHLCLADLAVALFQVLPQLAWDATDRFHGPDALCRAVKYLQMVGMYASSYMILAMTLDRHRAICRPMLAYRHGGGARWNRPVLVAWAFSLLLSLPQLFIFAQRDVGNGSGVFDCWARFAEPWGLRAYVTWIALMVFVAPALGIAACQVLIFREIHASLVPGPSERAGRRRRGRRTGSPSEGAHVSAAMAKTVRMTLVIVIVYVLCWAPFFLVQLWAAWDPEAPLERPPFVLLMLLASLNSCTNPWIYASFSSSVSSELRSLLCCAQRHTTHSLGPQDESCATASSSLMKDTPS
Protocol: as §1

[1] = rat uterus membranes, 1 nM [^3 H]OT, read-out: Receptor Binding Results IC50 (nM) [^3 H]OT
[2] = rat kidney medulla membranes, 2 nM [^3 H]AVP, read-out: Receptor Binding Results IC50 (nM) [^3 H]-AVP-V2
[3] = Receptor Binding Results IC50 (nM) [^3 H]-AVP-V1
[4] = read-out: Receptor Binding Results IC50 (nM) [^3 H]-AVP-V1
[5] = read-out: Receptor Binding Results IC50 (nM) [^3 H]-AVP-V2
[6] = Receptor Binding Results IC50 (nM) [^3 H]OT
[7] = Receptor Binding Results IC50 (nM) [^3 H]-AVP-V2

Molecule: CC[C@H](C)[C@@H]1NC(=O)[C@@H](Cc2ccccc2)NC(=O)[C@@H]2CCCN2C(=O)[C@@H](Cc2ccc(N)cc2)NC(=O)[C@@H]2CCCCN2C(=O)[C@H]2CCCCN2C1=O [Example 48, Cyclo[D-phenylalanyl-L-isoleucyl-D-pipecolyl-L-pipecolyl-D-(p-amino)phenylalanyl-L-prolyl]] (cyclo(I[dPip][Pip][dPhe(4-NH2)]P[dF]))
IC50 (AVP-V1 sites; [3]): 10000 nM
IC50 (uterine OT receptors; [1]): 250 nM
IC50 (AVP-V2 sites; [2]): > 10000 nM

Molecule: CC[C@H](C)[C@@H]1NC(=O)[C@@H](Cc2c[nH]c3ccccc23)NC(=O)[C@@H]2CCCN2C(=O)[C@@H](Cc2cnc[nH]2)NC(=O)[C@@H]2CCCCN2C(=O)[C@H]2CCC=NN2C1=O [Example 184, c-[D-Tryptophanyl-L-isoleucinyl-D-Δ-piperazyl-L-pipecolyl-D-histidyl-L-prolyl]] (cyclo(I[dPiz(1,6-dehydro)][Pip][dH]P[dW]))
IC50 (AVP-V1 sites; [4]): 3980 nM
IC50 (uterine OT receptors; [6]): 6 nM
IC50 (AVP-V2 sites; [2]): 1050 nM

Molecule: CC[C@H](C)[C@@H]1NC(=O)[C@@H](Cc2c[nH]c3ccccc23)NC(=O)[C@@H]2CCCN2C(=O)[C@@H](Cc2ccccc2)N(C)C(=O)[C@H](CCCN)NC(=O)[C@H]2CCC=NN2C1=O [Example 127, c-[D-Tryptophanyl-L-isoleucyl-D-Δ-piperazyl-L-ornithyl-N-methyl-D-phenylalanyl L-prolyl]] (cyclo(I[dPiz(1,6-dehydro)][Orn][dNMeF]P[dW]))
IC50 (AVP-V1 sites; [4]): 1600 nM
IC50 (uterine OT receptors; [6]): 22 nM
IC50 (AVP-V2 sites; [2]): 330 nM

Molecule: CC[C@H](C)[C@@H]1NC(=O)[C@@H](Cc2ccccc2)NC(=O)[C@@H]2CCCN2C(=O)[C@@H](Cc2ccccc2)N(C)C(=O)[C@H](Cc2cnc[nH]2)NC(=O)[C@H]2CCCCN2C1=O [Example 13] (cyclo(H[dNMeF]P[dF]I[dPip]))
IC50 (AVP-V1 sites; [3]): > 1000 nM
IC50 (uterine OT receptors; [1]): 150 nM
IC50 (AVP-V2 sites; [7]): > 1000 nM

Molecule: CC[C@H](C)[C@@H]1NC(=O)[C@@H](Cc2c[nH]c3ccccc23)NC(=O)[C@@H]2CCCN2C(=O)[C@@H](Cc2c[nH]cn2)NC(=O)[C@H](CCCNC(=O)OC(C)(C)C)NC(=O)[C@H]2CCCCN2C1=O [Example 129, c-[D-Tryptophanyl-L-isoleucyl-D-pipecolyl-(N^δ -Boc)-L-ornithyl-D-histidyl-L-prolyl] acetate salt] (cyclo(I[dPip][Orn](Boc)[dH]P[dW]))
IC50 (AVP-V1 sites; [3]): 10000 nM
IC50 (uterine OT receptors; [1]): 100 nM
IC50 (AVP-V2 sites; [2]): 10000 nM

Molecule: CC(C)C[C@@H]1NC(=O)[C@@H](Cc2c[nH]c3ccccc23)NC(=O)[C@@H]2CCCN2C(=O)[C@@H](Cc2c[nH]cn2)NC(=O)[C@@H]2CCCCN2C(=O)[C@H]2CCCCN2C1=O [Example 21, Cyclo[D-tryptophanyl-L-leucyl-D-pipecolyl-L-pipecolyl-D-histidyl-L-prolyl]] (cyclo(L[dPip][Pip][dH]P[dW]))
IC50 (AVP-V1 sites; [3]): 10000 nM
IC50 (uterine OT receptors; [6]): 190 nM
IC50 (AVP-V2 sites; [7]): > 10000 nM

Molecule: CC[C@H](C)[C@@H]1NC(=O)[C@@H](Cc2cccc3ccccc23)NC(=O)[C@@H]2CCCN2C(=O)[C@@H](Cc2cnc[nH]2)NC(=O)[C@@H]2CCCCN2C(=O)[C@H]2CCCCN2C1=O [Example 11, Cyclo[D-a-naphthalalanyl-L-isoleucyl-D-pipecolyl-L-pipecolyl-D-histidyl-L-prolyl]] (cyclo(I[dPip][Pip][dH]P[d1Nal]))
IC50 (AVP-V1 sites; [3]): > 1000 nM
IC50 (AVP-V2 sites; [7]): > 1000 nM

Molecule: CN1C(=O)[C@@H]2CCCCN2C(=O)[C@H]2CCCCN2C(=O)[C@H](Cc2ccccc2)NC(=O)[C@@H](Cc2c[nH]c3ccccc23)NC(=O)[C@@H]2CCCN2C(=O)[C@H]1Cc1ccccc1 [Example 134, c-[D-Tryptophanyl-L-phenylalanyl-D-pipecolyl-L-pipecolyl-D-(N-methyl)phenylalanyl-prolyl]] (cyclo(F[dPip][Pip][dNMeF]P[dW]))
IC50 (uterine OT receptors; [1]): 110 nM
IC50 (AVP-V2 sites; [5]): 8000 nM

Molecule: CC[C@H](C)[C@@H]1NC(=O)[C@@H](Cc2ccc3ccccc3c2)NC(=O)[C@@H]2CCCN2C(=O)[C@@H](Cc2ccccc2)N(C)C(=O)[C@H](CCCCN)NC(=O)[C@H]2CCCCN2C1=O [Example 140, C-[D-2-Napthylalanyl-L-isoleucyl-D-pipecolyl-L-lysyl-D-(N-methyl)phenylalanyl-L-prolyl]] (cyclo([d2Nal]I[dPip]K[dNMeF]P))
inhibition at 1 µM (AVP-V2 sites; 0.5 h, @ 1,000 (nM), read-out: [^3 H]-AVP-V2: percent inhibition of radioligand at the given concentration): 84%

The next lines start with the values.

IC50 (AVP-V1 sites; rat liver membranes, 1 nM [^3 H]AVP, read-out: Receptor Binding Results IC50 (nM) [^3 H]-AVP-V1): 13000 nM
IC50 (uterine OT receptors; [1]): 680 nM
IC50 (AVP-V2 sites; [2]): 7300 nM
Molecule: c-[D,L-3-(3-(5-Methyl)indolyl)alanyl-L-isoleucyl-D-pipecolyl-L-pipecolyl-D- histidyl-L-prolyl] [Example 154]

IC50 (AVP-V1 sites; [4]): 8000 nM
inhibition at 0.1 µM (uterine OT receptors; 1 h, @ 100 (nM), read-out: [^3 H]OT: percent inhibition of radioligand at the given concentration): 24%
IC50 (AVP-V2 sites; [5]): 8000 nM
Molecule: CC[C@H](C)[C@@H]1NC(=O)[C@@H](Cc2cccc3ccccc23)NC(=O)[C@@H]2CCCN2C(=O)[C@@H](Cc2ccccc2)N(C)C(=O)[C@H](CCCCNC(=O)OC(C)(C)C)NC(=O)[C@H]2CCCCN2C1=O [Example 139, C-[D-1-Napthylalanyl-L-isoleucyl-D-pipecolyl-L-(N-t-butyloxycarbonyl)lysyl-D-(N-methyl)phenylalanyl-L-prolyl]] (cyclo(I[dPip]K(Boc)[dNMeF]P[d1Nal]))

IC50 (AVP-V1 sites; [4]): > 3000 nM
IC50 (uterine OT receptors; [1]): 23000 nM
IC50 (AVP-V2 sites; [5]): > 3000 nM
Molecule: CC[C@H](C)[C@H]1C(=O)N2CCCC[C@@H]2C(=O)N2CCCC[C@H]2C(=O)N(C)[C@H](Cc2ccccc2)C(=O)N2CCC[C@H]2C(=O)N(C)[C@H](CCc2ccccc2)C(=O)N1C [Example 166] (cyclo([NMeI][dPip][Pip][dNMeF]P[dNMehPhe]))

[^3 H]OT: percent inhibition of radioligand at the given concentration (uterine OT receptors; @ 100 (nM)): 48%
[^3 H]-AVP-V2: percent inhibition of radioligand at the given concentration (AVP-V2 sites; @ 1,000 (nM)): 30%
Molecule: C-[D,L-3-(3-(7-Methyl)indolyl)alanyl-L-isoleucyl-D-pipecolyl-L-pipecolyl-D- histidyl-L-prolyl] [Example 155]

IC50 (AVP-V1 sites; [4]): 2900 nM
IC50 (uterine OT receptors; [1]): 245 nM
Molecule: CC[C@H](C)[C@@H]1NC(=O)[C@@H](Cc2ccccc2)NC(=O)[C@@H]2CCCN2C(=O)[C@@H](Cc2ccccc2)NC(=O)[C@@H]2CCCNN2C(=O)[C@H]2CCCNN2C1=O [Example 96, c-[L-prolyl-D-phenylalanyl-L-isoleucyl-D-piperazyl-L-piperazyl-D-phenylalanyl]] (cyclo(I[X6][X12][dF]P[dF]))

[^3 H]OT: percent inhibition of radioligand at the given concentration (uterine OT receptors; @ 10 (nM)): 48%
[^3 H]-AVP-V2: percent inhibition of radioligand at the given concentration (AVP-V2 sites; @ 1,000 (nM)): 35%
Molecule: c-[D,L-3-(3-(1-Methyl)indolyl)alanyl-L-isoleucyl-D-pipecolyl-L-pipecolyl-D- histidyl-L-prolyl] [Example 153]

[^3 H]OT: percent inhibition of radioligand at the given concentration (uterine OT receptors; @ 1,000 (nM)): 42%
Molecule: c-[D-Phenylalanyl-L-isoleucinyl-D-pipecolyl-D-piperazin-2-yl(4-Cbz)-L-(BOM)histidyl-L-prolyl] [Example 93]

inhibition at 1 µM (uterine OT receptors; 1 h, @ 1,000 (nM), read-out: [^3 H]OT: percent inhibition of radioligand at the given concentration): 68%
Molecule: CC[C@H](C)[C@@H]1NC(=O)C(Cc2cccc(O)c2)NC(=O)[C@@H]2CCCN2C(=O)[C@@H](Cc2ccccc2)N(C)C(=O)[C@H](CCCCNC(=O)OC(C)(C)C)NC(=O)[C@H]2CCCCN2C1=O (stereo partly drawn) [Example 143, C-[D,L-meta-Tyrosinyl-L-isoleucyl-D-pipecolyl-L-(N-t-butyloxycarbonyl)lysyl-D-(N-methyl)phenylalanyl-L-prolyl]] (cyclo(I[dPip]K(Boc)[dNMeF]P[ξmTyr]))

inhibition at 10 µM (AVP-V2 sites; 0.5 h, @ 10,000 (nM), read-out: [^3 H]-AVP-V2: percent inhibition of radioligand at the given concentration): 73%
Molecule: CC[C@H](C)[C@@H]1NC(=O)C(Cc2cn(C)c3ccccc23)NC(=O)[C@@H]2CCCN2C(=O)[C@@H](Cc2c[nH]cn2)NC(=O)[C@@H]2CCCCN2C(=O)[C@H]2CCCCN2C1=O (single isomer, unassigned) [153 lower Rf]

IC50 (uterine OT receptors; [1]): 5080 nM
Molecule: CC[C@H](C)[C@@H]1NC(=O)[C@@H](Cc2ccccc2)NC(=O)[C@@H]2CCCN2C(=O)[C@@H](Cc2ccccc2)NC(=O)[C@H](CC(N)=O)NC(=O)[C@H](CCC(N)=O)NC1=O [Example 100] (cyclo([dF]IQN[dF]P))

IC50 (uterine OT receptors; [1]): 10000 nM
Molecule: CC[C@H](C)[C@@H]1NC(=O)[C@@H](Cc2ccccc2)NC(=O)[C@@H]2CCCN2C(=O)[C@@H](Cc2ccccc2)NC(=O)[C@H](Cc2c[nH]cn2)NC(=O)[C@@H](Cc2c[nH]cn2)NC1=O [Example 69, c[D-Phenylalanyl-L-isoleucyl-D-histidinyl-L-histidinyl-D-phenylalanyl-L-prolyl]] (cyclo(H[dF]P[dF]I[dH]))

IC50 (uterine OT receptors; [1]): > 10000 nM
Molecule: O=C1N[C@@H](CC2CCCCC2)C(=O)N2CCC[C@@H]2C(=O)N2CCC[C@H]2C(=O)N[C@H](Cc2ccccc2)C(=O)N2CCC[C@H]2C(=O)N[C@@H]1Cc1ccccc1 [Example 56, c-[D-Phenylalanyl-L-cyclohexylalanyl-D-prolyl-L-prolyl-D-phenylalanyl-L-prolyl]] (cyclo([dF]P[dF][Cha][dP]P))

Source: US5225528A, “Cyclic hexapeptide oxytocin antagonists” (priority 1990, dated 1993)
